Results published in the supplement of paper PMC5908809.

What was measured:
Experiment in all cases: relative IC50 (inflection point of fitted viability curve, relative to fitted max inhibition); higher = less sensitive
Settings in all cases: 72 h
IMC-1 (IL-2 20 ng/mL) = system: IMC-1 (IL-2 20 ng/mL)
Procedure: (§1)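 Drug sensitivity and resistance testing: 5 concentrations over a 10,000-fold range, 72 h at 37 °C, viability by CellTiter-Glo normalised to DMSO and benzethonium chloride controls. IC50 is the inflection point of a logistic fit (min fixed at 0, max fitted), so it is relative to the fitted maximal inhibition. Kept only where fitted max inhibition is at least 50%.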

YT (IL-2 2.5 ng/mL) = system: YT (IL-2 2.5 ng/mL)
Procedure: as §1

SNK-6 (IL-2 2.5 ng/mL) = system: SNK-6 (IL-2 2.5 ng/mL)
Procedure: as §1

[1] = system: normal primary NK cells, pool 1 (3 donors), resting (IL-2 0 ng/mL)
Procedure: as §1

NK-YS (IL-2 2.5 ng/mL) = system: NK-YS (IL-2 2.5 ng/mL)
Procedure: as §1

[2] = system: normal primary NK cells, pool 2 (3 donors) (IL-2 2.5 ng/mL)
Procedure: as §1

DERL-7 (IL-2 2.5 ng/mL) = system: DERL-7 (IL-2 2.5 ng/mL)
Procedure: as §1

NKL (IL-2 2.5 ng/mL) = system: NKL (IL-2 2.5 ng/mL)
Procedure: as §1

KAI3 (IL-2 2.5 ng/mL) = system: KAI3 (IL-2 2.5 ng/mL)
Procedure: as §1

[3] = system: normal primary NK cells, pool 3 (3 donors) (IL-2 2.5 ng/mL)
Procedure: as §1

[4] = system: normal primary NK cells, pool 1 (3 donors) (IL-2 2.5 ng/mL)
Procedure: as §1

KHYG-1 (IL-2 2.5 ng/mL) = system: KHYG-1 (IL-2 2.5 ng/mL)
Procedure: as §1

NK-92 (IL-2 2.5 ng/mL) = system: NK-92 (IL-2 2.5 ng/mL)
Procedure: as §1

SMILES | relative IC50 (IMC-1 (IL-2 20 ng/mL)) | relative IC50 (YT (IL-2 2.5 ng/mL)) | relative IC50 (SNK-6 (IL-2 2.5 ng/mL)) | relative IC50 [1] | relative IC50 (NK-YS (IL-2 2.5 ng/mL)) | relative IC50 [2] | relative IC50 (DERL-7 (IL-2 2.5 ng/mL)) | relative IC50 (NKL (IL-2 2.5 ng/mL)) | relative IC50 (KAI3 (IL-2 2.5 ng/mL)) | relative IC50 [3] | relative IC50 [4] | relative IC50 (KHYG-1 (IL-2 2.5 ng/mL)) | relative IC50 (NK-92 (IL-2 2.5 ng/mL))
CC(C)CC(=O)Nc1n[nH]c2c1CN(C(=O)C1CCN(C)CC1)C2(C)C | 182 nM | 1220 nM | 1650 nM | 4760 nM | 463 nM | 1890 nM | 666 nM | 1510 nM | 1390 nM | 2210 nM | 3000 nM | 380 nM | 871 nM
COc1ccc(-c2cc3c(C)nc(N)nc3n([C@H]3CC[C@H](OCCO)CC3)c2=O)cn1 | 4020 nM | 116 nM | 1060 nM | 514 nM | 344 nM | 951 nM | 41.3 nM | 264 nM | 163 nM | 1510 nM | 939 nM | 476 nM | 84.6 nM
C[C@@H](Oc1ccc2[nH]nc(/C=C/c3cnn(CCO)c3)c2c1)c1c(Cl)cncc1Cl | 165 nM | 224 nM | 15.7 nM | – | 59.2 nM | 15.6 nM | 91.8 nM | 11.9 nM | 20.9 nM | 30.1 nM | 47.9 nM | 16.1 nM | 50.1 nM
Cc1nc(Nc2n[nH]c3c2CN(C(=O)N[C@H](CN(C)C)c2ccccc2)C3(C)C)c2sccc2n1 | 4.06 nM | 266 nM | 1340 nM | 1300 nM | 83.5 nM | 575 nM | 57.3 nM | 503 nM | 243 nM | 1590 nM | 1420 nM | 33.1 nM | 431 nM
Oc1c2ccccc2c2c3c(cccc13)N=N2 | – | – | 12200 nM | – | 13200 nM | – | 2570 nM | 4960 nM | 10600 nM | – | 11000 nM | 9700 nM | 4980 nM
O=C(NC1CCNCC1)c1n[nH]cc1NC(=O)c1c(Cl)cccc1Cl [AT7519] | 317 nM | 424 nM | 307 nM | 400 nM | 236 nM | 319 nM | 356 nM | 204 nM | 355 nM | 381 nM | 265 nM | 753 nM | 1270 nM
COc1cc(N2CCN(C)CC2)ccc1Nc1nccc(-c2cn(C)c3cnccc23)n1 [AZ191] | 2910 nM | – | 3570 nM | 4320 nM | 2440 nM | 3700 nM | 1650 nM | 2340 nM | 2510 nM | 3870 nM | 3430 nM | 1890 nM | 3940 nM
Cc1ncc(-c2ccnc(Nc3ccc(S(C)(=O)=O)cc3)n2)n1C(C)C [AZD-5438] | 1220 nM | 1570 nM | 3300 nM | 5260 nM | 848 nM | 1930 nM | 1370 nM | 2740 nM | 1150 nM | 1800 nM | 2220 nM | 1080 nM | 3010 nM
CO[C@H]1/C=C\C=C(/C)C(=O)NC2=CC(=O)C(NCCN(C)C)=C(C[C@@H](C)C[C@H](OC)[C@H](O)[C@@H](C)/C=C(\C)[C@@H]1OC(N)=O)C2=O [Alvespimycin] | 192 nM | 130 nM | 20.5 nM | – | 25.1 nM | 29.5 nM | 49.1 nM | 31.9 nM | 44.5 nM | 86.5 nM | 29.4 nM | 91.8 nM | 68.8 nM
S=C(NCc1ccc2c(c1)OCO2)N1CCN(c2ncnc3c2oc2ccccc23)CC1 [Amuvatinib] | – | – | 388 nM | 1380 nM | 2060 nM | 1930 nM | 521 nM | 815 nM | 1480 nM | 1760 nM | 1570 nM | 1330 nM | 911 nM
CC(C)(C#N)c1cc(Cn2cncn2)cc(C(C)(C)C#N)c1 [Anastrozole] | > 10000 nM | – | – | – | > 10000 nM | > 10000 nM | – | – | – | > 10000 nM | – | > 10000 nM | –
CCNC(=O)CCC/C=C\C[C@@H]1[C@@H](/C=C/[C@@H](O)CCc2ccccc2)[C@H](O)C[C@@H]1O [Bimatoprost] | > 5500 nM | > 5500 nM | – | – | > 5500 nM | > 5500 nM | > 5500 nM | – | > 5500 nM | > 5500 nM | – | > 5500 nM | > 5500 nM
COc1cc(Nc2c(C#N)cnc3cc(OCCCN4CCN(C)CC4)c(OC)cc23)c(Cl)cc1Cl [Bosutinib] | 3640 nM | 1950 nM | 3870 nM | 850 nM | 2980 nM | 1520 nM | 1320 nM | 3110 nM | 1350 nM | 3450 nM | 1710 nM | 1480 nM | 1620 nM
CCC/C=C/C=C/C(=O)O[C@H]1/C(=C/C(=O)OC)C[C@H]2C[C@H]([C@@H](C)O)OC(=O)C[C@H](O)C[C@@H]3C[C@H](OC(C)=O)C(C)(C)[C@](O)(C[C@@H]4C/C(=C/C(=O)OC)C[C@H](/C=C/C(C)(C)[C@]1(O)O2)O4)O3 [Bryostatin 1] | 0.28 nM | – | 1 nM | – | – | > 100 nM | – | > 100 nM | – | > 100 nM | > 100 nM | 0.13 nM | 0.23 nM
COc1ccc(-c2nc(N3CCOCC3)c3sc(CN(C)c4ncc(C(=O)NO)cn4)cc3n2)cn1 [CUDC-907] | 13 nM | 14.7 nM | 7.89 nM | 3.45 nM | 8.33 nM | 5.81 nM | 1.6 nM | < 1 nM | < 1 nM | 8.82 nM | 6.42 nM | 2.32 nM | 2.64 nM
Cc1nc(N)sc1-c1ccnc(Nc2ccc(N3CCOCC3)cc2)n1 [CYC-116] | 913 nM | 1400 nM | 171 nM | – | 238 nM | 1600 nM | 538 nM | 989 nM | 1100 nM | 2800 nM | 1810 nM | 599 nM | 889 nM
COc1cc2nccc(Oc3ccc(NC(=O)C4(C(=O)Nc5ccc(F)cc5)CC4)cc3)c2cc1OC [Cabozantinib] | – | – | – | – | – | – | – | – | – | – | > 1000 nM | – | –
CC(C)C[C@H](NC(=O)[C@H](CCc1ccccc1)NC(=O)CN1CCOCC1)C(=O)N[C@@H](Cc1ccccc1)C(=O)N[C@@H](CC(C)C)C(=O)[C@@]1(C)CO1 [Carfilzomib] | 3.26 nM | 3.07 nM | 2.8 nM | 1.41 nM | 2.91 nM | 1.77 nM | 0.92 nM | 3.52 nM | 1.43 nM | 2.58 nM | 1.61 nM | 2.95 nM | 1.96 nM
Cc1cc(Nc2ncc(Cl)c(Nc3ccccc3S(=O)(=O)C(C)C)n2)c(OC(C)C)cc1C1CCNCC1 [Ceritinib] | > 2500 nM | – | – | 464 nM | > 2500 nM | – | – | > 2500 nM | – | – | 616 nM | – | –
N.N.[Cl][Pt][Cl] [Cisplatin] | 515 nM | – | – | – | – | 14800 nM | – | – | – | 15600 nM | – | – | –
Cc1cc(Nc2cc(N3CCN(C)CC3)nc(/C=C/c3ccccc3)n2)n[nH]1 [ENMD-2076] | 573 nM | 1360 nM | 541 nM | 1710 nM | 293 nM | 1290 nM | 497 nM | 503 nM | 256 nM | 1970 nM | 1500 nM | 482 nM | 901 nM
CC(C)C(=O)Nc1ccc([N+](=O)[O-])c(C(F)(F)F)c1 [Flutamide] | – | – | – | – | – | – | – | – | > 10000 nM | – | > 10000 nM | > 10000 nM | –
COc1cc2c(cc1-c1c(C)noc1C)ncc1[nH]c(=O)n([C@H](C)c3ccccn3)c12 [I-BET151] | 2040 nM | 966 nM | 149 nM | 1010 nM | 707 nM | 1240 nM | 306 nM | 375 nM | 848 nM | 1850 nM | 1040 nM | 606 nM | –
CC(=O)[C@]1(O)Cc2c(O)c3c(c(O)c2[C@@H](O[C@H]2C[C@H](N)[C@H](O)[C@H](C)O2)C1)C(=O)c1ccccc1C3=O [Idarubicin] | 7.71 nM | 34 nM | 5.03 nM | 3.38 nM | 6.58 nM | 9.51 nM | 6.26 nM | 1.74 nM | 3.54 nM | 10.9 nM | 17.3 nM | 6.52 nM | 5.78 nM
Cc1ccc(NC(=O)c2ccc(CN3CCN(C)CC3)cc2)cc1Nc1nccc(-c2cccnc2)n1 [Imatinib] | 3400 nM | 2740 nM | 4290 nM | 1980 nM | 2920 nM | – | 2190 nM | 3600 nM | 3230 nM | – | 1650 nM | 3080 nM | 2230 nM
